Test results: ChEMBL document CHEMBL1126966, “1,25,28-trihydroxyvitamin D2 up-regulates renal vitamin D receptor without causing hypercalcemia” (1993)

Legend:
Rattus norvegicus [1] = organism: Rattus norvegicus; assay: Compound was tested for its ability to stimulate bone calcium resorption in serum relative to 1,25(OH)2D3 in rats at a dose of 50 ng/rat; assay type: functional, organism-based
Rattus norvegicus [2] = organism: Rattus norvegicus; assay: Compound was tested for its ability to stimulate intestinal calcium absorption relative to 1,25(OH)2D3 in rats at a dose of 100ng/rat, expressed as Ca (serosal) /Ca (mucosal); assay type: functional
Rattus norvegicus [3] = organism: Rattus norvegicus; assay: Compound was tested for its ability to stimulate intestinal calcium absorption relative to 1,25(OH)2D3 in rats at a dose of 50ng/rat, expressed as Ca (serosal) /Ca (mucosal); assay type: functional
Rattus norvegicus [4] = organism: Rattus norvegicus; assay: Compound was tested for its ability to stimulate bone calcium resorption in serum relative to 1,25(OH)2D3 in rats at a dose of 25 ng/rat; assay type: functional, organism-based
Rattus norvegicus [5] = organism: Rattus norvegicus; assay: Compound was tested for its ability to stimulate bone calcium resorption in serum relative to 1,25(OH)2D3 in rats at a dose of 100 ng/rat; assay type: functional, organism-based
Rattus norvegicus [6] = organism: Rattus norvegicus; assay: Compound was tested for its ability to stimulate intestinal calcium absorption relative to 1,25(OH)2D3 in rats at a dose of 25ng/rat, expressed as Ca (serosal) /Ca (mucosal); assay type: functional
Rattus norvegicus [7] = organism: Rattus norvegicus; assay: Compound was tested for its ability to stimulate intestinal calcium absorption relative to 1,25(OH)2D3 in rats at a dose of 200ng/rat, expressed as Ca (serosal) /Ca (mucosal); assay type: functional
Rattus norvegicus [8] = organism: Rattus norvegicus; assay: Compound was tested for its ability to stimulate bone calcium resorption in serum relative to 1,25(OH)2D3 in rats at a dose of 200 ng/rat; assay type: functional, organism-based
Rattus norvegicus [9] = organism: Rattus norvegicus; assay: Compound was tested for regulation of kidney VDR in rats; assay type: functional
Rattus norvegicus [10] = organism: Rattus norvegicus; assay: Compound was tested for increase in plasma calcium concentration in rats; assay type: functional, organism-based
Rattus norvegicus [11] = organism: Rattus norvegicus; assay: Compound was tested for its ability to stimulate bone calcium resorption in rats at a dose of 12.5 ng/rat; assay type: functional, organism-based

C=C1/C(=C\C=C2/CCC[C@]3(C)[C@@H]([C@H](C)/C=C/[C@H](CO)C(C)(C)O)CC[C@@H]23)C[C@@H](O)C[C@@H]1O
Serum Ca2+ (Rattus norvegicus [1]): 4.2 mg/dL
Ratio (Rattus norvegicus [2]): 2.22
Ratio (Rattus norvegicus [3]): 2.08
Serum Ca2+ (Rattus norvegicus [4]): 4.1 mg/dL
Serum Ca2+ (Rattus norvegicus [5]): 3.8 mg/dL
Ratio (Rattus norvegicus [6]): 2.17
Ratio (Rattus norvegicus [7]): 3.21
Serum Ca2+ (Rattus norvegicus [8]): 4 mg/dL
Kidney VDR (Rattus norvegicus [9]): 249 fM (mg of protein)-1
Plasma Ca2+ (Rattus norvegicus [10]): 10.5 mg/dL

C=C1/C(=C\C=C2/CCC[C@]3(C)[C@@H]([C@H](C)CCCC(C)(C)O)CC[C@@H]23)C[C@@H](O)C[C@@H]1O
Serum Ca2+ (Rattus norvegicus [11]): 4.6 mg/dL
Plasma Ca2+ (Rattus norvegicus [10]): 10.6 mg/dL
